Results taken from ChEMBL document CHEMBL3507680, “University of Dundee, Gates Library screen for HepG2 cell viability”.

Test: Human HepG2 cell viability assay in 384 well format
Assay type: toxicity, cell-based
Design: dose 125 nL, time 70.5 hour; cytotoxicity at 70.5 h: concentration not given beside the values
Details: HepG2 cells, read-out: Inhibition

Q: For `COCCc1nnc(NC(=O)CCCc2ccccc2)o1`, which cytotoxicity at 70.5 h is on record?
A: The cytotoxicity at 70.5 h was -6.03%.

Q: Which cytotoxicity at 70.5 h does the source give for `COCC(O)CN1CCC(=O)N(CC2CC2)Cc2ccccc21` (stereo unspecified) here?
A: The cytotoxicity at 70.5 h was -3.32%.

Q: With `Cc1ccc2[nH]c(C(=O)N3CCC4(CC3)C(=O)NCCN4C)nc2c1` as the compound, how does the cytotoxicity at 70.5 h read?
A: Its cytotoxicity at 70.5 h is -6.83%.

Q: With `Cn1cc(C(=O)OC2CN(c3nc4c(C(F)(F)F)cccc4s3)C2)nn1` as the compound, how does the cytotoxicity at 70.5 h read?
A: Its cytotoxicity at 70.5 h is 1.02%.

Q: Which cytotoxicity at 70.5 h does the source give for `CCc1ncnc2c1CCN(Cc1ccc(OC)cc1)CC2` here?
A: The cytotoxicity at 70.5 h was -8.97%.

Q: For `CCOC(=O)Cn1c(=O)nc(N)c2c(-c3ccc(OC)cc3)csc21`, which cytotoxicity at 70.5 h is on record?
A: The cytotoxicity at 70.5 h was -12.9%.

Q: For `CC(C)C1CN(c2ncccn2)CCC(=O)N1CC1CC1` (stereo unspecified), which cytotoxicity at 70.5 h is on record?
A: Its cytotoxicity at 70.5 h is 36.1%.

Q: With `CCNC(=O)[C@@H]1C[C@@H](NC(=O)Cc2ccncc2)CN1Cc1ccsc1` as the compound, how does the cytotoxicity at 70.5 h read?
A: Its cytotoxicity at 70.5 h is -1.57%.

Q: With `Cc1nc(C)n(C2CCCN(C(=O)c3sccc3C3CC3)C2)n1` (stereo unspecified) as the compound, how does the cytotoxicity at 70.5 h read?
A: The cytotoxicity at 70.5 h was 21.5%.

Q: With `CC(C)CN1CCC(C(=O)NCCNC(=O)c2ccoc2)CC1` as the compound, how does the cytotoxicity at 70.5 h read?
A: Its cytotoxicity at 70.5 h is -1.22%.

Q: Which cytotoxicity at 70.5 h does the source give for `N#Cc1cccc(OCCN2CCn3c(nnc3C3CC3)C2)c1` here?
A: Its cytotoxicity at 70.5 h is -11%.

Q: For `Cc1ncccc1C(=O)NC1(c2cccc(F)c2)CCOCC1`, which cytotoxicity at 70.5 h is on record?
A: Its cytotoxicity at 70.5 h is -3.77%.

Q: For `COc1ccc(OCCN(C)Cc2nc3c(cnn3C)c(=O)[nH]2)cc1`, which cytotoxicity at 70.5 h is on record?
A: Its cytotoxicity at 70.5 h is -3.93%.

Q: Which cytotoxicity at 70.5 h does the source give for `CC(NC(=O)N(C)Cc1ccsc1)c1ccc2c(c1)NC(=O)CO2` (stereo unspecified) here?
A: Its cytotoxicity at 70.5 h is -9.52%.

Q: With `Cc1cc(Cl)c(C)c(S(=O)(=O)N2CCN(Cc3ccccn3)CC2)c1Cl` as the compound, how does the cytotoxicity at 70.5 h read?
A: Its cytotoxicity at 70.5 h is 40.2%.

Q: Which cytotoxicity at 70.5 h does the source give for `Cc1cc(CN(C)C(=O)NCc2ccnc(OC3CCCC3)c2)no1` here?
A: The cytotoxicity at 70.5 h was -3.22%.

Q: Which cytotoxicity at 70.5 h does the source give for `Cc1c[nH]c(CN2CCCn3nc(CNS(C)(=O)=O)cc3C2)n1` here?
A: Its cytotoxicity at 70.5 h is 16%.

Q: For `CC(NC1CCN(CCS(C)(=O)=O)CC1)c1cnn(C(C)C)c1` (stereo unspecified), which cytotoxicity at 70.5 h is on record?
A: The cytotoxicity at 70.5 h was -10.2%.

Q: For `Cc1cc(CN(Cc2cccs2)CC2CCCO2)no1` (stereo unspecified), which cytotoxicity at 70.5 h is on record?
A: Its cytotoxicity at 70.5 h is -0.996%.

Q: With `CC(C)OCCCNC(=O)CS(=O)(=O)Cc1ccc(C(C)(C)C)cc1` as the compound, how does the cytotoxicity at 70.5 h read?
A: Its cytotoxicity at 70.5 h is -5.34%.

Q: Which cytotoxicity at 70.5 h does the source give for `c1ccc(CCN2CCc3c(ncn3C3CC3)C2)nc1` here?
A: Its cytotoxicity at 70.5 h is -3.33%.

Q: With `Cc1nc(CC(=O)N2CCN(C)CC2c2ccccc2)cs1` (stereo unspecified) as the compound, how does the cytotoxicity at 70.5 h read?
A: Its cytotoxicity at 70.5 h is -0.955%.

Q: For `Cc1cc(C(=O)NCC2CCS(=O)(=O)C2)ccc1NC(=O)c1ccco1` (stereo unspecified), which cytotoxicity at 70.5 h is on record?
A: Its cytotoxicity at 70.5 h is 2.82%.

Q: Which cytotoxicity at 70.5 h does the source give for `Cc1ccc(CNC(CCO)C2CCCCC2)nc1` (stereo unspecified) here?
A: The cytotoxicity at 70.5 h was -1.61%.

Q: With `Cc1ccc(-c2nc(CN3CCCC(Cn4cncn4)C3)no2)cc1` (stereo unspecified) as the compound, how does the cytotoxicity at 70.5 h read?
A: Its cytotoxicity at 70.5 h is 27.5%.

Q: With `Cc1[nH]ccc1C(=O)N1CCOCC12CCCC2` as the compound, how does the cytotoxicity at 70.5 h read?
A: Its cytotoxicity at 70.5 h is -0.873%.

Q: With `COc1ccc(CNc2n[nH]c(C)n2)cc1` as the compound, how does the cytotoxicity at 70.5 h read?
A: Its cytotoxicity at 70.5 h is -11.8%.

Q: Which cytotoxicity at 70.5 h does the source give for `CCNC(=O)N(C)Cc1ccc(SC)c(OC)c1` here?
A: The cytotoxicity at 70.5 h was -7.42%.

Q: Which cytotoxicity at 70.5 h does the source give for `NC(=O)C1CCN(S(=O)(=O)c2cnn(-c3ccccc3)c2)C1` (stereo unspecified) here?
A: The cytotoxicity at 70.5 h was -3.49%.

Q: For `O=C([C@H]1CCCO1)N1CCc2ncnc(C3CC3)c2CC1`, which cytotoxicity at 70.5 h is on record?
A: The cytotoxicity at 70.5 h was -11.8%.

Q: Which cytotoxicity at 70.5 h does the source give for `Cn1cccc1C(=O)NCc1cn2c(n1)CN(Cc1ccccn1)CC2` here?
A: The cytotoxicity at 70.5 h was -13.2%.

Q: For `COc1cc(N2CCC3(CC2)CC(N2CCN(C)CC2)CO3)ncn1` (stereo unspecified), which cytotoxicity at 70.5 h is on record?
A: The cytotoxicity at 70.5 h was -20.9%.

Q: Which cytotoxicity at 70.5 h does the source give for `Cn1ncc2c1NC(=O)CC2c1cc(Cl)ccc1F` (stereo unspecified) here?
A: The cytotoxicity at 70.5 h was 47.5%.

Q: Which cytotoxicity at 70.5 h does the source give for `CN(C)C(=O)C1CCC2(CCNCC2)C1` (stereo unspecified) here?
A: The cytotoxicity at 70.5 h was -2.3%.

Q: For `CCNc1nc(C)c(C(=O)N(C)Cc2noc(C)n2)s1`, which cytotoxicity at 70.5 h is on record?
A: Its cytotoxicity at 70.5 h is 11.7%.

Q: With `O=C(NCCN1CCOCC1)Nc1cc(F)ccc1-n1cccn1` as the compound, how does the cytotoxicity at 70.5 h read?
A: The cytotoxicity at 70.5 h was -0.85%.

Q: With `COc1ccc(CN(C)C(=O)CN2CC(n3cccn3)C2)cc1F` as the compound, how does the cytotoxicity at 70.5 h read?
A: The cytotoxicity at 70.5 h was -0.231%.

Q: With `O=C(C1CCCO1)N1CC[C@@H]2CN(Cc3ccccc3)S(=O)(=O)[C@@H]2CC1` (stereo partly specified) as the compound, how does the cytotoxicity at 70.5 h read?
A: Its cytotoxicity at 70.5 h is -6.03%.

Q: For `CCOC(C)c1noc(CN2CCN(Cc3cccnc3)CC2)n1` (stereo unspecified), which cytotoxicity at 70.5 h is on record?
A: The cytotoxicity at 70.5 h was 34.3%.

Q: Which cytotoxicity at 70.5 h does the source give for `CC(C)Cn1cncc1Cn1cccc(C(F)(F)F)c1=O` here?
A: Its cytotoxicity at 70.5 h is -2.53%.

Q: Which cytotoxicity at 70.5 h does the source give for `CCOC1CCN(C(=O)c2csc(S(N)(=O)=O)c2)CC1` here?
A: The cytotoxicity at 70.5 h was -4.71%.

Q: Which cytotoxicity at 70.5 h does the source give for `CN1[C@@H](C(=O)NCC2CC2)C[C@@H]2CN(Cc3ccco3)C[C@@H]21` here?
A: Its cytotoxicity at 70.5 h is -12.2%.

Q: With `CN(C)c1ccc(C(=O)N2CCN(Cc3cscn3)CC2)cn1` as the compound, how does the cytotoxicity at 70.5 h read?
A: The cytotoxicity at 70.5 h was -6.24%.

Q: Which cytotoxicity at 70.5 h does the source give for `Cc1nccn1C1(C(=O)O)CCN(Cc2ccc3occc3c2)CC1` here?
A: Its cytotoxicity at 70.5 h is -7.56%.

Q: With `CCOCC1COCCC12CCN(C(=O)CC1=CCCCC1)CC2` (stereo unspecified) as the compound, how does the cytotoxicity at 70.5 h read?
A: The cytotoxicity at 70.5 h was -5.12%.

Q: Which cytotoxicity at 70.5 h does the source give for `COc1ccc(CC(=O)NCC(O)c2sccc2C)cc1OC` (stereo unspecified) here?
A: The cytotoxicity at 70.5 h was -6.12%.

Q: With `COc1ccccc1OCc1nc2cc3c(cc2c(=O)o1)OCCCO3` as the compound, how does the cytotoxicity at 70.5 h read?
A: The cytotoxicity at 70.5 h was 31.8%.

Q: For `Nc1ncnc2nc(C3CCCCN3)ccc12` (stereo unspecified), which cytotoxicity at 70.5 h is on record?
A: The cytotoxicity at 70.5 h was -6.59%.

Q: For `CC(C)(O)CN1CCN(C(=O)COCC2CC2)CC1`, which cytotoxicity at 70.5 h is on record?
A: Its cytotoxicity at 70.5 h is 2.07%.

Q: With `CN(C)S(=O)(=O)N1CCC2(CC1)CC(Oc1ccccn1)CO2` (stereo unspecified) as the compound, how does the cytotoxicity at 70.5 h read?
A: The cytotoxicity at 70.5 h was 0.296%.

Q: With `Cc1nn(CCNC(C)Cn2ccnc2)c(C)c1Cl` (stereo unspecified) as the compound, how does the cytotoxicity at 70.5 h read?
A: The cytotoxicity at 70.5 h was -1.29%.

Q: For `CCc1nnc(CN2CCN(C(C)=O)CC2)o1`, which cytotoxicity at 70.5 h is on record?
A: Its cytotoxicity at 70.5 h is -1.65%.

Q: For `O=c1cc(N2CCCCC2)cnn1C[C@H](O)CO`, which cytotoxicity at 70.5 h is on record?
A: Its cytotoxicity at 70.5 h is -3.44%.

Q: Which cytotoxicity at 70.5 h does the source give for `Cc1noc(C)c1CN1CCc2ncnc(-c3cccnc3)c2CC1` here?
A: Its cytotoxicity at 70.5 h is -0.64%.

Q: For `CCc1nccn1C1CCCN(C(=O)C2=NN(C)C(=O)CC2)C1` (stereo unspecified), which cytotoxicity at 70.5 h is on record?
A: Its cytotoxicity at 70.5 h is -8.58%.

Q: For `Cn1cnc2cc(CCC(=O)Nc3n[nH]c(C4CCCO4)n3)ccc21` (stereo unspecified), which cytotoxicity at 70.5 h is on record?
A: The cytotoxicity at 70.5 h was 1.89%.
